Source: PubChem BioAssay (NCI)
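Abbreviation: GI50, concentration required for 50% inhibition of growth. The concentration for full growth arrest is given as TGI.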

Assays:
Experiment in all cases: DTP human tumour cell line panel, 384-well format
786-0 renal = system: 786-0 renal
A498 renal = system: A498 renal
A549 NSCLC = system: A549 NSCLC
ACHN renal = system: ACHN renal
BT-549 breast = system: BT-549 breast
CAKI-1 renal = system: CAKI-1 renal
CCRF-CEM leukemia = system: CCRF-CEM leukemia
COLO 205 colon = system: COLO 205 colon
DU-145 prostate = system: DU-145 prostate
EKVX NSCLC = system: EKVX NSCLC
HCC-2998 colon = system: HCC-2998 colon
HCT-15 colon = system: HCT-15 colon
HL-60(TB) leukemia = system: HL-60(TB) leukemia
HOP-62 NSCLC = system: HOP-62 NSCLC
HOP-92 NSCLC = system: HOP-92 NSCLC
HS 578T breast = system: HS 578T breast
HT29 colon = system: HT29 colon
IGROV1 ovarian = system: IGROV1 ovarian
KM12 colon = system: KM12 colon
M14 melanoma = system: M14 melanoma
MALME-3M melanoma = system: MALME-3M melanoma
MCF7 breast = system: MCF7 breast
MDA-MB-231 breast = system: MDA-MB-231 breast
MDA-MB-435 melanoma = system: MDA-MB-435 melanoma
MDA-MB-468 breast = system: MDA-MB-468 breast
MOLT-4 leukemia = system: MOLT-4 leukemia
NCI-H226 lung = system: NCI-H226 lung
NCI-H23 lung = system: NCI-H23 lung
NCI-H322M lung = system: NCI-H322M lung
NCI-H460 NSCLC = system: NCI-H460 NSCLC
NCI-H522 lung = system: NCI-H522 lung
NCI/ADR-RES ovarian = system: NCI/ADR-RES ovarian
OVCAR-3 ovarian = system: OVCAR-3 ovarian
OVCAR-4 ovarian = system: OVCAR-4 ovarian
OVCAR-5 ovarian = system: OVCAR-5 ovarian
OVCAR-8 ovarian = system: OVCAR-8 ovarian
PC-3 prostate = system: PC-3 prostate
RPMI-8226 leukemia = system: RPMI-8226 leukemia
RXF 393 renal = system: RXF 393 renal
SF-268 CNS = system: SF-268 CNS
SF-295 CNS = system: SF-295 CNS
SF-539 CNS = system: SF-539 CNS
SK-MEL-2 melanoma = system: SK-MEL-2 melanoma
SK-MEL-28 melanoma = system: SK-MEL-28 melanoma
SK-MEL-5 melanoma = system: SK-MEL-5 melanoma
SK-OV-3 ovarian = system: SK-OV-3 ovarian
SN12C renal = system: SN12C renal
SNB-19 CNS = system: SNB-19 CNS
SNB-75 CNS = system: SNB-75 CNS
SR leukemia = system: SR leukemia
SW-620 colon = system: SW-620 colon
T-47D breast = system: T-47D breast
TK-10 renal = system: TK-10 renal
U251 glioblastoma = system: U251 glioblastoma
UACC-257 melanoma = system: UACC-257 melanoma
UACC-62 melanoma = system: UACC-62 melanoma

Work on Cc1[nH]c(/C=C2\C(=O)Nc3ccccc32)c(C)c1CCC(=O)O yielded a GI50 (786-0 renal) of 52 µM, a TGI (786-0 renal) of over 100 µM and a GI50 (A498 renal) of 29 µM. For the same molecule, the TGI (A498 renal) was over 100 µM, the GI50 (A549 NSCLC) was 29.2 µM and the TGI (A549 NSCLC) was 84.7 µM. It also gave a GI50 (ACHN renal) of 24.6 µM, a TGI (ACHN renal) of 68.4 µM and a GI50 (BT-549 breast) of 18 µM. The TGI (BT-549 breast) was 42.3 µM, the GI50 (CAKI-1 renal) was 15.1 µM and the TGI (CAKI-1 renal) was 40.3 µM. The GI50 (CCRF-CEM leukemia) was 18.1 µM, the TGI (CCRF-CEM leukemia) was 34.4 µM and the GI50 (COLO 205 colon) was 22.8 µM. It also gave a TGI (COLO 205 colon) of 38.7 µM, a GI50 (DU-145 prostate) of 35.4 µM and a TGI (DU-145 prostate) of over 100 µM. The GI50 (EKVX NSCLC) was 17.6 µM, the TGI (EKVX NSCLC) was 52.7 µM and the GI50 (HCC-2998 colon) was 24.1 µM. The TGI (HCC-2998 colon) was 75.3 µM, the GI50 (HCT-15 colon) was 25.3 µM and the TGI (HCT-15 colon) was 59.6 µM. The GI50 (HL-60(TB) leukemia) was 23.9 µM, the TGI (HL-60(TB) leukemia) was 39.2 µM and the GI50 (HOP-62 NSCLC) was 42.4 µM. The TGI (HOP-62 NSCLC) was over 100 µM, the GI50 (HOP-92 NSCLC) was 19.8 µM and the TGI (HOP-92 NSCLC) was 43.3 µM. The GI50 (HS 578T breast) was 22.1 µM, the TGI (HS 578T breast) was 78.7 µM and the GI50 (HT29 colon) was 26 µM. The TGI (HT29 colon) was 67.6 µM, the GI50 (IGROV1 ovarian) was 25.6 µM and the TGI (IGROV1 ovarian) was 86.5 µM. It also gave a GI50 (KM12 colon) of 4.33 µM, a TGI (KM12 colon) of 52.9 µM and a GI50 (M14 melanoma) of 15.1 µM. The TGI (M14 melanoma) was 33.9 µM, the GI50 (MALME-3M melanoma) was 5.47 µM and the TGI (MALME-3M melanoma) was 23.1 µM. For the same molecule, the GI50 (MCF7 breast) was 39.9 µM, the TGI (MCF7 breast) was over 100 µM and the GI50 (MDA-MB-231 breast) was 16.5 µM. It also gave a TGI (MDA-MB-231 breast) of 53 µM, a GI50 (MDA-MB-435 melanoma) of 21.3 µM and a TGI (MDA-MB-435 melanoma) of 51.4 µM. For the same molecule, the GI50 (MDA-MB-468 breast) was 16.3 µM, the TGI (MDA-MB-468 breast) was 32.6 µM and the GI50 (MOLT-4 leukemia) was 16.3 µM. The TGI (MOLT-4 leukemia) was 30.3 µM, the GI50 (NCI-H226 lung) was 15.3 µM and the TGI (NCI-H226 lung) was 34.4 µM. For the same molecule, the GI50 (NCI-H23 lung) was 16.6 µM, the TGI (NCI-H23 lung) was 40.1 µM and the GI50 (NCI-H322M lung) was 38.4 µM. It also gave a TGI (NCI-H322M lung) of over 100 µM, a GI50 (NCI-H460 NSCLC) of 17.6 µM and a TGI (NCI-H460 NSCLC) of 34.2 µM. The GI50 (NCI-H522 lung) was 21.2 µM, the TGI (NCI-H522 lung) was 62.1 µM and the GI50 (NCI/ADR-RES ovarian) was 31.9 µM. For the same molecule, the TGI (NCI/ADR-RES ovarian) was over 100 µM, the GI50 (OVCAR-3 ovarian) was 27.4 µM and the TGI (OVCAR-3 ovarian) was 89 µM. It also gave a GI50 (OVCAR-4 ovarian) of 22.6 µM, a TGI (OVCAR-4 ovarian) of over 100 µM and a GI50 (OVCAR-5 ovarian) of 20.2 µM. It also gave a TGI (OVCAR-5 ovarian) of 55.3 µM, a GI50 (OVCAR-8 ovarian) of 32 µM and a TGI (OVCAR-8 ovarian) of over 100 µM. It also gave a GI50 (PC-3 prostate) of 24.6 µM, a TGI (PC-3 prostate) of 81.9 µM and a GI50 (RPMI-8226 leukemia) of 16.2 µM. For the same molecule, the TGI (RPMI-8226 leukemia) was 30.5 µM, the GI50 (RXF 393 renal) was 56 µM and the TGI (RXF 393 renal) was over 100 µM. For the same molecule, the GI50 (SF-268 CNS) was 24.5 µM, the TGI (SF-268 CNS) was 73.9 µM and the GI50 (SF-295 CNS) was over 100 µM. The TGI (SF-295 CNS) was over 100 µM, the GI50 (SF-539 CNS) was 13.1 µM and the TGI (SF-539 CNS) was 45.4 µM. For the same molecule, the GI50 (SK-MEL-2 melanoma) was 24 µM, the TGI (SK-MEL-2 melanoma) was 41.7 µM and the GI50 (SK-MEL-28 melanoma) was 23.1 µM. For the same molecule, the TGI (SK-MEL-28 melanoma) was 52.6 µM, the GI50 (SK-MEL-5 melanoma) was 17.2 µM and the TGI (SK-MEL-5 melanoma) was 36 µM. It also gave a GI50 (SK-OV-3 ovarian) of 14.3 µM, a TGI (SK-OV-3 ovarian) of 38.7 µM and a GI50 (SN12C renal) of 27.7 µM. It also gave a TGI (SN12C renal) of 89.3 µM, a GI50 (SNB-19 CNS) of 61.7 µM and a TGI (SNB-19 CNS) of over 100 µM. It also gave a GI50 (SNB-75 CNS) of 11.7 µM, a TGI (SNB-75 CNS) of over 100 µM and a GI50 (SR leukemia) of 19.1 µM. It also gave a TGI (SR leukemia) of 33.3 µM, a GI50 (SW-620 colon) of 19.6 µM and a TGI (SW-620 colon) of 41.4 µM. The GI50 (T-47D breast) was 53.7 µM, the TGI (T-47D breast) was over 100 µM and the GI50 (TK-10 renal) was 23.2 µM. The TGI (TK-10 renal) was 59.3 µM, the GI50 (U251 glioblastoma) was 35 µM and the TGI (U251 glioblastoma) was over 100 µM. It also gave a GI50 (UACC-257 melanoma) of 17.7 µM, a TGI (UACC-257 melanoma) of 47.8 µM and a GI50 (UACC-62 melanoma) of 25.9 µM. The TGI (UACC-62 melanoma) was 70.3 µM.
